Patent US20070167411A1, “Compositions for treating angina” (Medicure International Inc., priority 2003, published 2007)

What was measured:
[1] = test system: isolated non-ischemic working rat heart; experiment: Glucose oxidation rates in isolated working rat heart perfusion ([14C] glucose, 14CO2 production); conditions: 60 minutes aerobic perfusion, compound added about 5 minutes into aerobic period, saline control 1580±183
Method: The goal was to determine if […] altered glucose oxidation rates or cardiac function in the isolated non-ischemic working rat heart model. This was achieved by subjecting rat hearts to 60 minutes of aerobic perfusion. […] was added about 5 minutes into the aerobic period and the effects of […] on glucose metabolism was determined during the aerobic period. […] Rat hearts were cannulated for isolated working heart perfusions as described previously (Lopaschuk et al., J Pharmacol Exp Ther. 1993 Jan; 264(1):135-44). In brief, male Sprague-Dawley rats (0.3-0.35 kg) were anesthetized with pentobarbital sodium (60 mg/kg i.p.). The hearts were quickly excised, the aorta was cannulated, and a retrograde perfusion at 37° C. was initiated at a hydrostatic pressure of 60 mm Hg. Hearts were trimmed of excess tissue, and the pulmonary artery and the opening to the left atrium were then cannulated. […] Spontaneously beating hearts were used in all perfusions, heart rate and aortic pressure were measured with a Biopac Systems Inc. blood pressure transducer connected to the aortic outflow line. Cardiac output and aortic flow were measured with Transonic […] ultrasonic flow probes in the preload and afterload lines, respectively. Coronary flow was calculated as the difference between cardiac output and aortic flow. […]

[2] = water, alcohol, and ether; cited from earlier work

| SMILES | glucose oxidation rates [1] | solubility [2] |
| --- | --- | --- |
| O=C(O)C(Cl)Cl [DCA, dichloroacetic acid, reference compound] | 2422±140 |  |
| Cc1ncc(COP(=O)(O)O)c(C=O)c1O [Example P5P, 3-hydroxy-2-methyl-5-[(phosphonooxy)methyl]-4-pyridine-carboxaldehyde] | 2253±230 | essentially insoluble in water, alcohol, and ether |
